This note sets out measurements from ChEMBL document CHEMBL4480433, “Investigation of B,C-ring truncated deguelin derivatives as heat shock protein 90 (HSP90) inhibitors for use as anti-breast cancer agents” (Bioorg Med Chem, 2019).

Molecules are shown by their SMILES. Active and inactive are the calls of the source. The calls are words filed in the database; no cut-off is given here.

One assay concerns 4T1. The assay can be described thus: Cytotoxicity against mouse 4T1 cells at 10 uM after 72 hrs by MTS assay. Format: functional, cell-based. On the technique in general: Tetrazolium dyes change colour on reduction, which living cells bring about.
In assay [1] the test system is MDA-MB-231. The assay can be described thus: Inhibition of HSP90 in human MDA-MB-231 cells assessed as reduction in phosphorylated-AKT/total-AKT ratio at 5 to 10 uM after 72 hrs by immunoblot analysis. It counts as cell-based. Background: A western blot detects proteins with antibodies after separation by electrophoresis.
For assay [2], the target named is T1, Heat shock protein HSP90 (Homo sapiens) (UniProt P07900+P08238). Briefly: Inhibition of HSP90 in human H1299 cells assessed as reduction in HIF-1alpha at 100 nM incubated for 72 hrs and subsequently incubated under hypoxic conditions for 12 hrs by Western blot analysis relative to control. It counts as cell-based. Particulars: values are per cent of control.

Assay [3] deals with MDA-MB-231. The assay can be described thus: Induction of morphological changes in human MDA-MB-231 cells assessed as cytoplasmic shrinkage at 2 to 10 uM after 72 hrs by phase contrast microscopic analysis. It counts as functional, cell-based.
Assay [4] deals with MDA-MB-231. Briefly: Effect on ERK protein level in human MDA-MB-231 cells at 2 to 10 uM after 72 hrs by immunoblot analysis. Format: functional, cell-based.
The test system of assay [5] is MDA-MB-231. The assay can be described thus: Cytotoxicity against human MDA-MB-231 cells at 10 uM after 72 hrs by MTS assay. It counts as functional, cell-based.
The test system of assay [6] is MDA-MB-231. Briefly: Inhibition of HSP90 in human MDA-MB-231 cells assessed as reduction in phosphorylated-STAT3/total-STAT3 ratio at 5 to 10 uM after 72 hrs by immunoblot analysis. It counts as cell-based.
The target in assay [7] is T1, Heat shock protein HSP90 (Homo sapiens). Briefly: Inhibition of HSP90 in human H1299 cells assessed as reduction in HIF-1alpha incubated for 72 hrs and subsequently incubated under hypoxic conditions for 12 hrs by Western blot analysis relative to control. It counts as cell-based.
The target is the same in assay [8]. The assay can be described thus: Inhibition of HSP90 in human H1299 cells assessed as reduction in HIF-1alpha at 10 nM incubated for 72 hrs and subsequently incubated under hypoxic conditions for 12 hrs by Western blot analysis relative to control. It counts as cell-based. Conditions: values are per cent of control.
In assay [9] the test system is MDA-MB-231. The assay can be described thus: Inhibition of HSP90 in human MDA-MB-231 cells assessed as reduction in phosphorylated-MEK/total-MEK ratio at 5 to 10 uM after 72 hrs by immunoblot analysis. It counts as cell-based. Particulars: Hofmanni bacterium.
Assay [10] deals with MDA-MB-231. The assay can be described thus: Inhibition of ERK phosphorylation in human MDA-MB-231 cells at 5 to 10 uM after 72 hrs by immunoblot analysis. Format: cell-based.

As for `COc1ccc(N(CCN2CCNCC2)C(=O)c2ccc3c(c2OC)C=CC(C)(C)O3)cc1OC`, the outcome in the assay on 4T1, with MDA-MB-231 [3] and in the assay with MDA-MB-231 [5] was Active. The inhibition entry in the assay with MDA-MB-231 [1], in the assay with MDA-MB-231 [6], in the assay on MDA-MB-231 [9] and in the assay with MDA-MB-231 [10] was “Active” each time. Moreover, the response, % of control in assay [2] is 51.9%; in [8], 60.6%. In addition, the outcome with MDA-MB-231 [4] was inactive. For the same compound, the inhibition entry in [7] is “Dose-dependent effect”.
